Results from ChEMBL document CHEMBL5303573, “Mapping human microbiome drug metabolism by gut bacteria and their genes” (Nature, 2019).

Key:
[1] = The drug is tested on Collinsella intestinalis strain: DSM13280 for biotransformation. The drug concentrations were measured before and after a 12-h incubation by liquid-chromatography-coupled mass spectrometry (LC–MS); conditions: 2 µM
[2] = The drug is tested on Ruminococcus torques strain: ATCC27756 for biotransformation. The drug concentrations were measured before and after a 12-h incubation by liquid-chromatography-coupled mass spectrometry (LC–MS); type: ADME; design: dose 2 uM, timepoint 0 vs 12 hours; conditions: 2 µM
[3] = The drug is tested on Bacteroides finegoldii strain: DSM17565 for biotransformation. The drug concentrations were measured before and after a 12-h incubation by liquid-chromatography-coupled mass spectrometry (LC–MS); conditions: 2 µM
[4] = The drug is tested on Bifidobacterium longum subsp. Infantis strain: CCUG52486 for biotransformation. The drug concentrations were measured before and after a 12-h incubation by liquid-chromatography-coupled mass spectrometry (LC–MS); conditions: 2 µM
[5] = The drug is tested on Bacteroides ovatus strain: ATCC8483 for biotransformation. The drug concentrations were measured before and after a 12-h incubation by liquid-chromatography-coupled mass spectrometry (LC–MS); conditions: 2 µM
[6] = The drug is tested on Anaerotruncus colihominis strain: DSM17241 for biotransformation. The drug concentrations were measured before and after a 12-h incubation by liquid-chromatography-coupled mass spectrometry (LC–MS); conditions: 2 µM
[7] = The drug is tested on Providencia rettgeri strain: DSM1131 for biotransformation. The drug concentrations were measured before and after a 12-h incubation by liquid-chromatography-coupled mass spectrometry (LC–MS); type: ADME; design: dose 2 uM, timepoint 0 vs 12 hours; conditions: 2 µM
[8] = The drug is tested on Bacteroides sp. WH2 strain: WH2 for biotransformation. The drug concentrations were measured before and after a 12-h incubation by liquid-chromatography-coupled mass spectrometry (LC–MS); conditions: bacteroides sp. wh2, 12 h, 2 µM
[9] = bacteroides thetaiotaomicron, 12 h, 2 µM
Description: The drug is tested on Bacteroides thetaiotaomicron strain: 7330 for biotransformation. The drug concentrations were measured before and after a 12-h incubation by liquid-chromatography-coupled mass spectrometry (LC–MS)

[10] = The drug is tested on Anaerococcus hydrogenalis strain: DSM7454 for biotransformation. The drug concentrations were measured before and after a 12-h incubation by liquid-chromatography-coupled mass spectrometry (LC–MS); conditions: 2 µM
[11] = The drug is tested on Bacteroides pectinophilus strain: ATCC43243 for biotransformation. The drug concentrations were measured before and after a 12-h incubation by liquid-chromatography-coupled mass spectrometry (LC–MS); conditions: 2 µM
[12] = The drug is tested on Eubacterium rectale strain: ATCC33656 for biotransformation. The drug concentrations were measured before and after a 12-h incubation by liquid-chromatography-coupled mass spectrometry (LC–MS); conditions: agathobacter rectalis, 2 µM
[13] = limosilactobacillus reuteri cf48-3a, 12 h, 2 µM
Description: The drug is tested on Lactobacillus reuteri CF48-3A strain: BEI HM-102 for biotransformation. The drug concentrations were measured before and after a 12-h incubation by liquid-chromatography-coupled mass spectrometry (LC–MS)

[14] = bacteroides stercoris, 12 h, 2 µM
Description: The drug is tested on Bacteroides stercoris strain: ATCC43183 for biotransformation. The drug concentrations were measured before and after a 12-h incubation by liquid-chromatography-coupled mass spectrometry (LC–MS)

[15] = The drug is tested on Bifidobacterium breve strain: DSM20213 for biotransformation. The drug concentrations were measured before and after a 12-h incubation by liquid-chromatography-coupled mass spectrometry (LC–MS); conditions: 2 µM
[16] = The drug is tested on Bacteroides dorei strain: DSM17855 for biotransformation. The drug concentrations were measured before and after a 12-h incubation by liquid-chromatography-coupled mass spectrometry (LC–MS); conditions: phocaeicola dorei, 2 µM
[17] = bacteroides eggerthii, 12 h, 2 µM
Description: The drug is tested on Bacteroides eggerthii strain: DSM20697 for biotransformation. The drug concentrations were measured before and after a 12-h incubation by liquid-chromatography-coupled mass spectrometry (LC–MS)

[18] = parabacteroides distasonis, 12 h, 2 µM
Description: The drug is tested on Parabacteroides distasonis strain: ATCC8503 for biotransformation. The drug concentrations were measured before and after a 12-h incubation by liquid-chromatography-coupled mass spectrometry (LC–MS)

| Compound | Bacterial Biotransformation [1] | Bacterial Biotransformation [2] | Bacterial Biotransformation [3] | Bacterial Biotransformation [4] | Bacterial Biotransformation [5] | Bacterial Biotransformation [6] | Bacterial Biotransformation [7] | Bacterial Biotransformation [8] | Bacterial Biotransformation [9] | Bacterial Biotransformation [10] | Bacterial Biotransformation [11] | Bacterial Biotransformation [12] | Bacterial Biotransformation [13] | Bacterial Biotransformation [14] | Bacterial Biotransformation [15] | Bacterial Biotransformation [16] | Bacterial Biotransformation [17] | Bacterial Biotransformation [18] |
| --- | --- | --- | --- | --- | --- | --- | --- | --- | --- | --- | --- | --- | --- | --- | --- | --- | --- | --- |
| O=C(Nc1ccccc1)OCC(CN1CCCCC1)OC(=O)Nc1ccccc1 (stereo not given) [DIPERODON] | Compound NOT metabolized | Compound NOT metabolized | Compound NOT metabolized | Compound NOT metabolized | Compound NOT metabolized | Compound NOT metabolized | Compound NOT metabolized | Compound NOT metabolized | Compound NOT metabolized | Compound NOT metabolized | Compound NOT metabolized | Compound NOT metabolized | Compound NOT metabolized | Compound NOT metabolized | Compound NOT metabolized | Compound NOT metabolized | Compound NOT metabolized |  |
| Cc1ccccc1N1C(=O)c2cc(S(N)(=O)=O)c(Cl)cc2NC1C (stereo not given) [METOLAZONE] | Compound NOT metabolized | Compound NOT metabolized |  | Compound NOT metabolized |  |  |  | Compound NOT metabolized | Compound NOT metabolized |  | Compound NOT metabolized |  | Compound NOT metabolized | Compound NOT metabolized | Compound NOT metabolized |  | Compound NOT metabolized | Compound NOT metabolized |
| CCN(CC)CCOC(=O)C1(C2CCCCC2)CCCCC1 [DICYCLOMINE] | Compound NOT metabolized | Compound metabolized |  |  | Compound NOT metabolized | Compound NOT metabolized | Compound NOT metabolized | Compound NOT metabolized | Compound NOT metabolized | Compound NOT metabolized | Compound NOT metabolized |  |  |  | Compound NOT metabolized | Compound metabolized | Compound NOT metabolized | Compound metabolized |
| CN1CCOC(c2ccccc2)c2ccccc2C1 (stereo not given) [NEFOPAM] | Compound NOT metabolized | Compound NOT metabolized | Compound NOT metabolized | Compound NOT metabolized | Compound NOT metabolized | Compound NOT metabolized | Compound NOT metabolized | Compound NOT metabolized | Compound NOT metabolized | Compound NOT metabolized | Compound NOT metabolized | Compound NOT metabolized | Compound NOT metabolized | Compound NOT metabolized | Compound NOT metabolized |  | Compound NOT metabolized | Compound NOT metabolized |
| Cc1cc2c(s1)Nc1ccccc1N=C2N1CCN(C)CC1 [OLANZAPINE] | Compound NOT metabolized | Compound NOT metabolized | Compound NOT metabolized | Compound NOT metabolized |  | Compound NOT metabolized | Compound NOT metabolized |  | Compound NOT metabolized | Compound NOT metabolized | Compound NOT metabolized | Compound NOT metabolized | Compound NOT metabolized | Compound NOT metabolized | Compound NOT metabolized | Compound NOT metabolized | Compound NOT metabolized | Compound NOT metabolized |
| CC(C)N(CCC(C(N)=O)(c1ccccc1)c1ccccn1)C(C)C.O=P(O)(O)O (stereo not given) [DISOPYRAMIDE PHOSPHATE] | Compound NOT metabolized |  | Compound NOT metabolized | Compound NOT metabolized | Compound NOT metabolized | Compound NOT metabolized | Compound NOT metabolized | Compound NOT metabolized |  | Compound NOT metabolized | Compound NOT metabolized | Compound NOT metabolized | Compound NOT metabolized | Compound NOT metabolized | Compound NOT metabolized | Compound NOT metabolized | Compound NOT metabolized | Compound NOT metabolized |
| CN(C)CCOC(C)(c1ccccc1)c1ccccn1.O=C(O)CCC(=O)O (stereo not given) [DOXYLAMINE SUCCINATE] | Compound NOT metabolized | Compound NOT metabolized | Compound NOT metabolized | Compound NOT metabolized | Compound NOT metabolized | Compound NOT metabolized |  | Compound NOT metabolized | Compound NOT metabolized | Compound NOT metabolized | Compound NOT metabolized |  | Compound NOT metabolized | Compound NOT metabolized | Compound NOT metabolized | Compound NOT metabolized | Compound NOT metabolized | Compound NOT metabolized |
| O=C(CCCN1CCC(O)(c2ccc(Cl)cc2)CC1)c1ccc(F)cc1 [HALOPERIDOL] | Compound NOT metabolized | Compound NOT metabolized | Compound NOT metabolized | Compound NOT metabolized | Compound NOT metabolized |  | Compound NOT metabolized | Compound NOT metabolized | Compound NOT metabolized | Compound NOT metabolized | Compound NOT metabolized | Compound NOT metabolized | Compound NOT metabolized | Compound NOT metabolized | Compound NOT metabolized | Compound NOT metabolized | Compound NOT metabolized |  |
| CCN(CC)CCNC(=O)c1cc(Cl)c(N)cc1OC [METOCLOPRAMIDE] | Compound NOT metabolized | Compound NOT metabolized | Compound NOT metabolized | Compound NOT metabolized | Compound NOT metabolized | Compound NOT metabolized | Compound NOT metabolized | Compound NOT metabolized | Compound NOT metabolized | Compound NOT metabolized | Compound NOT metabolized | Compound NOT metabolized | Compound NOT metabolized | Compound NOT metabolized | Compound NOT metabolized | Compound NOT metabolized | Compound NOT metabolized | Compound NOT metabolized |
